From patent US12521419B2, “Use of anti-aging glycopeptides to enhance pancreatic cell health, survival and improve transplant outcome” (Protokinetix Inc., priority 2014, dated 2026) come the findings set out here.

The subject of assay [1] is human islets transplanted under the kidney capsule. The assay can be described thus: Intra-graft apoptosis 24 h post-transplant (cleaved caspase-3, TUNEL). The assay is classed as in vivo, immunodeficient mice. The conditions noted are these: graft 24 h after transplant. As to the method:
Apoptosis is measured in all groups using a cleaved caspase-3 spectrophotometric assay and Terminal deoxynucleotidyl transferase dUTP nick end labeling (TUNEL) staining. All determinations are made on normalized groups of 100 IEQ and their corresponding culture media.
Frozen media samples are used to determine cleaved caspase-3 increase using a spectrophotometric assay (EMD Millipore™. Billerica, MA, USA). Again, CMRL culture media alone with additives and no cells is used as a control, and results are expressed as fold-change increase compared to the control media.
For TUNEL staining (DeadEnd™ Apoptosis Detection System, Promega, Madison, WI), islets are fixed in formalin, processed and embedded in paraffin. Co-staining is performed to identify the graft (insulin), apoptotic cells and all nuclei present in the field. Apoptosis is quantified by percentage of positive TUNEL stained area using imageJ software.
Three mice per group underwent nephrectomy and are euthanized 24 hr post-transplant to perform acute determination of proinflammatory cytokines, cleaved capase-3 and TUNEL in the graft area. In all cases the islet graft is excised from the kidney, weighed, flash frozen in liquid nitrogen and stored at −80° C. […]

Assay [2] concerns human islets. As to the kind of experiment: Static GSIS assay (stimulation index). The assay is classed as cell-based. The conditions noted are these: day 3, tacrolimus present. The source says:
Similar experimental conditions were recreated (human islets cultured with and without AAGP™ and exposed to tacrolimus) and aliquots of approximately 100 IEQ were collected on day 3 for each corresponding group to undergo s-GSIS assay and simultaneous intracellular insulin content. Islets were then extensively washed to remove tacrolimus and left in culture for 4 more days, when sampling and comparative testing was repeated on day 7.

In assay [3] the test system is syngeneic islet transplant. The assay can be described thus: Syngeneic full mass islet transplant with continuous tacrolimus treatment. The assay is classed as in vivo, mouse. The source says:
FIG. 11 illustrates the post-transplant graft function in immunodefficient mice receiving minimal human islet mass (˜1000 IEQ). Islets were previously treated with AAGP™ and tracrolimus accordingly. […] The dotted line indicates graft recovery nephrectomy on day 60. B. Intraperitoneal glucose tolerance test (IPGTT) to evaluate metabolic response after receiving a glucose bolus. C. Insulin content of removed grafts after 60 days of transplant as an indication of residual islet mass. Data points represent mean±SEM adjusted per gram of tissue, (Tac− n=6, Tac+ n=3 and Tac+AAGP™ n=7), *p<0.05, **p<0.01 and ***p<0.001. D and E. Post-transplant graft function in mice receiving syngeneic full mass (˜500 IEQ) islet transplant. AAGP™ was added to the culture media 1 hour prior to transplant and tacrolimus was administered via a subcutaneous osmotic pump (implanted during the same procedure) at a continuous rate of 1 mg/kg/day. D. Pooled blood glucose profiles of animal over 40 days with clear dysfunction for Tac+ islets during the presence of Tac. Vertical dotted line indicates tacrolimus treatment cessation and marks a gradual recovery of Tac+ grafts. Horizontal continuous line at y=11 indicates the normoglycemia limit. Graft recovery nephrectomy was again performed on day 30. E. Mean time-to-euglycemia after transplant showing Tac+AAGP™ mice reversing diabetes earlier (p<0.001, log-rank, Mantel-cox test). […] These differences were not observed in the Tac+AAGP™ group.
To further support these findings a transplant experiment was performed in a syngeneic diabetic mouse transplant model with continuous treatment with tacrolimus to resemble clinical practice.
To make our experiments more clinically relevant, a new in vivo syngeneic mouse transplant model was performed, with tacrolimus as a continuous treatment by means of a subcutaneous osmotic pump. It was observed that the functional impairment of transplanted islets occurred immediately after starting administration of the CNI and lasted during the entire treatment period (7 days).

Assay [4] has as its system human islets transplanted under the kidney capsule. The assay can be described thus: Long-term graft function of minimal mass human islet transplant (blood glucose, IPGTT, graft insulin content). The assay is classed as in vivo, immunodeficient mice. The source says:
Eight to 12 week immunodeficient mice (B6.129S7-Rag1^tm1Mom) are obtained from the Jackson Laboratory (Bar Harbor, ME, USA) and housed under specific pathogen-free conditions with access to food and water ad libitum. Animals are cared for according to the guidelines of the Canadian Council on Animal Care, and ethical approval is obtained from the animal welfare committee at the University of Alberta.
Animals are considered diabetic after two consecutive blood glucose measurements are documented≥18 mmol/L.
Ten animals per group received approximately 1,000 IEQ human islets transplanted under the capsule of the left kidney as described previously (19).
Non-fasting blood glucose is monitored in the remaining 7 mice per group three times a week using a portable glucometer (OneTouch Ultra 2, LifeScan, Canada) over 60 days. Normoglycemia is defined when two consecutive readings are below 11.3 mmol/L.
Intraperitoneal Glucose-Tolerance Tests (IPGTT) are conducted 60 days post-transplant to evaluate the capacity of islets to respond to a glucose bolus (3 g/kg) after overnight fast. Blood glucose levels are monitored at baseline (Time 0, 15, 30, 60, 90 and 120 minutes post-injection). All results are compared to blood glucose profiles of naive control mice.
Non-fasting blood glucose levels are recorded for 1 week following nephrectomy. Likewise, the native pancreas is excised at the terminal endpoint, fixed in 10% formalin and analyzed with immunohistochemistry to confirm absence of mouse insulin staining, thus, eliminating residual or regeneration of native pancreatic beta cell function.
Preserved grafts are then processed as previously described and residual insulin content is determined using human insulin ELISA as a measure of surviving islets.

The subject of assay [5] is human islets. As to the kind of experiment: Glucose-stimulated insulin secretion (GSIS) perifusion assay. The assay is classed as cell-based. The following applies: 24 h ± AAGP then 24 hr tacrolimus 10 ng/mL; Tac− 158.8. As to the method:
Islet secretory function is assessed by monitoring in vitro insulin secretory profile during continuous glucose stimulation, as described by Cabrera et al Cell transplantation 2008;16(10):1039-1048. This in vitro perifusion assay is a modality of continuous Glucose-Stimulated Insulin Secretion (GSIS) test to stress islets in alternating normoglycemic and hyperglycemic environment to model physiological islet response. Supernatants from the perifusion assay are collected and insulin levels are determined using a commercially available ELISA kit (Insulin ELISA kit. Mercodia Inc. Pittsburgh, PA, USA). Results are expressed as fold-change of insulin secretion compared to the low (2.8 mMol) glucose stimulation baseline, normalized for 100 IEQ.

As for `C=CC[C@@H]1/C=C(\C)C[C@H](C)C[C@H](OC)[C@H]2O[C@@](O)(C(=O)C(=O)N3CCCC[C@H]3C(=O)O[C@H](/C(C)=C/[C@@H]3CC[C@@H](O)[C@H](OC)C3)[C@H](C)[C@@H](O)CC1=O)[C@H](C)C[C@@H]2OC.O` [Tac+, tacrolimus], in assay [1] (n=3), the “cleaved caspase-3, fold-change increase relative to kidneys of naïve mice” value is on record as 3.14. In assay [1] (control 14.9%), the “percentage of TUNEL positive cells” value came to 53.3%. Moreover, in assay [2], the “stimulation index (s-GSIS)” value is 1.4. In addition, the “graft function / period to achieve euglycemia” value in assay [3] (AAGP in culture media 1 hour prior to transplant, tacrolimus 1 mg/kg/day by osmotic pump) is “unable to effectively secrete insulin and return animals to euglycemic state”. Also, the “IPGTT AUC under tacrolimus treatment” value in assay [3] (initial IPGTT (7 days), tacrolimus 1 mg/kg/day) came out at 101. In assay [4] (60 days post-transplant, glucose bolus 3 g/kg, Tac− 92.63, naïve 71.43), the “IPGTT AUC” value was 149.8. In assay [4] (after 60 days of transplant), the “insulin content of recovered graft” value is given as 30.86 ng/mL. For the same compound, in assay [4] (marginal islet mass model, n=7 per group), the “blood glucose over 60 days post-transplant” value was “all mice remained hyperglycemic”. Further, in assay [5], the “GSIS perifusion AUC” value amounted to 8.22.
